Measured values published in patent US9127136B1, “Purification of monomer from recycle polyesters” (SABIC Global Technologies B.V, priority 2014, dated 2015).
Values after ≈ are worked out from the molar mass of the structure shown.

Test: Solubility of BHET in different solvents (shaken 2 hours, analyzed by HPLC)
Assay type: physicochemical
Experimental: Solubility of BHET in Different Solvents
10 ml of the designated solvent was added to a scintillation vial with 2 g of BHET. The vial was placed in a shaker, shaken for 2 hours and the contents were analyzed by HPLC.

SMILES: O=C(OCCO)c1ccc(C(=O)OCCO)cc1 [BHET, bis(2-hydroxyethyl) terephthalate]
- solubility of BHET in 45% THF/Hexanes (estimated) (solvent: 45% THF/Hexanes, estimated from 12.6% solubility in THF): 5.67%
- % Solubility (w/v) (solvent: Acetone): 9.09 % (w/v)
- % Solubility (w/v) (solvent: Acetonitrile): 4.98 % (w/v)
- % Solubility (w/v) (solvent: DMF): 60 % (w/v)
- % Solubility (w/v) (solvent: Dichloromethane): 1.12 % (w/v)
- % Solubility (w/v) (solvent: Ethanol): 8.61 % (w/v)
- % Solubility (w/v) (solvent: Methanol): 13.75 % (w/v)
- % Solubility (w/v) (solvent: THF): 12.6 % (w/v)
- % Solubility (w/v) (solvent: ethylene glycol): 2.81 % (w/v)
- % Solubility (w/v) (solvent: hexanes): _~0 % (w/v)
- % Solubility (w/v) (solvent: iso-propanol): 6.16 % (w/v)
- solubility thermodynamic at 2 h (thermodynamic from solid, solvent: water): 5000 µg/mL (≈ 19.7 mM)
